In patent US20230016424A1, “HYBRID AMIDE DERIVATIVES OF AMPHOTERICIN B” (The Board of Trustees of the University of Illinois, priority 2019, published 2023):
Values after ≈ are worked out from the molar mass of the structure shown. Read-outs that look alike come from different tables or passages of the source.

How the values were obtained:
[1] = system: C. albicans SN250, C. albicans, C. krusei, C. glabrata, C. tropicalis, A. fumigatus 91, 1163, 1100; assay: Average MIC over the tested strains; type: cell-based; details: for MIC: average over the 8 listed strains; for Average MIC for AmB analogue: value of the corresponding AmB analogue, not of the C2’epi compound
[2] = system: C. albicans SN250; assay: MIC; type: cell-based, Candida albicans
[3] = system: C. albicans; assay: MIC; type: cell-based
[4] = system: C. glabrata; assay: MIC; type: cell-based
[5] = system: C. tropicalis; assay: MIC; type: cell-based
[6] = system: A. fumigatus 1100; assay: MIC; type: cell-based
[7] = system: C. krusei; assay: MIC; type: cell-based
[8] = system: human erythrocytes; assay: MHC hemolysis assay; type: cell-based; details: hemolysis, human erythrocytes, 37° C. 2 hours
Description: MHC (FIG. 21B): The protocol for the hemolysis assay was adapted from the report of Paquet and coworkers (Chem. Eur. J. 2008, 14, 2465-2481). Whole human blood (sodium heparin) was purchased from Bioreclamation LLC (Westbury, N.Y.) and stored at 4° C. and used within two days of receipt. To a 2.0 mL eppendorf tube, 1 mL of whole human blood was added and centrifuged at 10,000 g for 2 minutes. The supernatant was removed and the erythrocyte pellet was washed with 1 mL of sterile saline and centrifuged at 10,000 g for 2 minutes. The saline wash was repeated for a total of three washes. The erythrocyte pellet was suspended in 1 mL of RBC buffer (10 mM NaH2PO4, 150 mM NaCl, 1 mM MgCl2, pH 7.4) to form the erythrocyte stock suspension.
Compounds were prepared as >15 mM stock solutions in DMSO and serially diluted to the following concentrations with DMSO: 7689, 5126, 2563, 2050, 1538, 1025, 769, 513, 384, 256, 205, 154, 103, 77, 51, 26 μM. To a 0.2 mL PCR tube, 24 μL of RBC buffer and 1 μL of compound stock solution were added, which gave final concentrations of […]. Positive and negative controls were prepared by adding 1 μL of DMSO to MilliQ water or RBC buffer, respectively to 0.2 mL PCR tube. To each PCR tube, 0.63 μL of the erythrocyte stock suspension was added and mixed by inversion. The samples were incubated at 37° C. for 2 hours. The samples were mixed by inversion and centrifuged at 10,000 g for 2 minutes. 15 μL of the supernatant from each sample was added to a 384-well place. Absorbances were read at 540 nm using a Biotek H1 Synergy Hybrid Reader (Wanooski, Vt.). Experiments were performed in triplicate and the reported MHC represents an average of three experiments.

[9] = UV-Vis sterol binding assay
Description: However, an alternative method was developed for reproducible formation of homogenous AmB and C2′epiAmB sterol sponge aggregates in vitro. Using these preparations, a quantitative UV-Vis and Principle Component (PCA) based assay for determining the apparent KDs for the binding of AmB and C2′epiAmB to ergosterol and cholesterol (FIGS. 5A-5D) was developed.
UV-Vis Binding Assay (FIG. 21A): The protocol for the sterol binding assay (UV-Vis) was developed in our lab. Compounds were dissolved in DMSO at a final concentration of 1 mM. Sterol were first dissolved in CHCl3 (>200 mM) and then diluted to 1 mM concentration with DMSO. To synthesize the complex 1 ul of compound solution was taken in a clean eppendorf tube (2 ml) and sterol solution (volume depends on the stoichiometry) was added to it and the volume was made up to 20 ul with DMSO. 0.98 ml of PBS buffer was added to the Eppendorf tube and mixed properly. The absorbance of the solution was measured after 30 mins of incubation.

[10] = system: A. fumigatus 91; assay: MIC; type: cell-based
[11] = system: A. fumigatus 1163; assay: MIC; type: cell-based
[12] = Liver Microsome stability (In Vitro Metabolism); type: in vitro ADME; details: for Remaining (T = NCF60 min): no cofactor 60 min
Description: Working Compound solution: 10 uM in 50 mM potassium phosphate buffer with 9% MeOH and 1% DMSO
Microsome solution: working concentration 0.625 mg/ml
Stopping solution: Cold ACN with 200 ng/ml Tolbutamide and 200 ng/ml Labetalol (4° C.)
Procedure: In the well plates (T5, T10, T20, T30, T60, NCF60 (no cofactor 60)) 10 uL of the compound/control working solution was added (except T0 and matric blank) followed by microsome solution (80 uL) and the mixture was incubated at 37 C for about 10 mins. A solution of potassium phosphate (10 ul of 50 mM) was added to NCF60 well, incubated at 37 C and time counting started. After prewarming 10 ul of NADPH regenerating solution was added to each plate to start the reaction. At different time point 300 uL/well of stopping solution to terminate the reaction. The sampling plates were shaken for 10 mins and the centrifuged for 20 mins at 4000 rpm. The supernatant was half diluted with ultra pure water and the analyzed using LCMS.

[13] = Plasma Stability; type: in vitro ADME
Description: Plasma Stability: Procedure: […] Plasma was warmed to 37° C. prior to the experiment and centrifuged for 5 mins at 4000 rpm. […] Each time point was monitored in triplicate (0, 10, 30, 60 and 120 min). 4 uL/well aliquot of the working solution was mixed to the blank plasma and incubated at 37° C. AT each time point samples were quenched with ACN stop solution containing 200 ng/ml Tolbutamide & 200 ng/ml Labetalol at 1:3 ratio and mix well on shaker for 10 min then centrifuge at 4000 rpm for 15 min. A 100 ul aliquot of supernatant was mixed with 100 μL of ultra-pure and submitted for LC-MS/MS analysis.

SMILES: CC1C=CC=CC=CC=CC=CC=CC=CC(OC2OC(C)C(O)C(N)C2O)CC2OC(O)(CC(O)CC(O)C(O)CCC(O)CC(O)CC(=O)OC(C)C(C)C1O)CC(O)C2C(=O)NCCN (stereo not shown) [BC]
- MIC [1]: 1.750 µM
- Average MIC for AmB analogue [1]: 0.563 μM
- MIC C. albicans SN250 [2]: 0.5 µM (≈ 0.483 µg/mL)
- MIC C. albicans [3]: 0.5 µM (≈ 0.483 µg/mL)
- MIC C. glabrata [4]: 0.5 µM (≈ 0.483 µg/mL)
- MIC C. tropicalis [5]: 0.5 µM (≈ 0.483 µg/mL)
- MIC A. fumigatus 1100 [6]: 2 µM (≈ 1.93 µg/mL)
- MIC C. krusei [7]: 4 µM (≈ 3.86 µg/mL)
- MHC [8]: 250 µM
- Cholesterol Binding [9]: Yes?
- MIC A. fumigatus 91 [10]: 4 µM (≈ 3.86 µg/mL)
- MIC A. fumigatus 1163 [11]: 2 µM (≈ 1.93 µg/mL)

SMILES: CC1C=CC=CC=CC=CC=CC=CC=CC(OC2OC(C)C(O)C(N)C2O)CC2OC(O)(CC(O)CC(O)C(O)CCC(O)CC(O)CC(=O)OC(C)C(C)C1O)CC(O)C2C(=O)NCCO (stereo not shown) [Compound AA]
- MIC [1]: 0.44 µM
- MIC ([1]; listed as AmBHEA): 0.44 µM
- MIC C. albicans SN250 [2]: 0.25 µM (≈ 0.242 µg/mL)
- CL ([12]; Dog liver microsomes): <9.6 µL/min/mg
- CLint ([12]; Dog liver microsomes): <14 mL/min/kg
- Remaining (T = 60 min) ([12]; Dog liver microsomes): 88.5%
- T1/2 ([12]; Dog liver microsomes): >2.42 h
- Remaining (T = NCF60 min) ([12]; Dog liver microsomes): 97.4%
- CL ([12]; Human liver microsomes): <9.6 µL/min/mg
- CLint ([12]; Human liver microsomes): <8.6 mL/min/kg
- Remaining (T = 60 min) ([12]; Human liver microsomes): 111%
- T1/2 ([12]; Human liver microsomes): >2.42 h
- Remaining (T = NCF60 min) ([12]; Human liver microsomes): 142%
- CL ([12]; Monkey liver microsomes): <9.6 µL/min/mg
- CLint ([12]; Monkey liver microsomes): <13 mL/min/kg
- Remaining (T = 60 min) ([12]; Monkey liver microsomes): 113%
- T1/2 ([12]; Monkey liver microsomes): >2.42 h
- Remaining (T = NCF60 min) ([12]; Monkey liver microsomes): 103%
- CL ([12]; Mouse liver microsomes): <9.6 µL/min/mg
- CLint ([12]; Mouse liver microsomes): <38 mL/min/kg
- Remaining (T = 60 min) ([12]; Mouse liver microsomes): 118%
- T1/2 ([12]; Mouse liver microsomes): >2.42 h
- Remaining (T = NCF60 min) ([12]; Mouse liver microsomes): 140%
- CL ([12]; Rat liver microsomes): <9.6 µL/min/mg
- CLint ([12]; Rat liver microsomes): <17 mL/min/kg
- Remaining (T = 60 min) ([12]; Rat liver microsomes): 130%
- T1/2 ([12]; Rat liver microsomes): >2.42 h
- Remaining (T = NCF60 min) ([12]; Rat liver microsomes): 113%
- MIC C. albicans [3]: 0.225 µM (≈ 0.218 µg/mL)
- MIC C. albicans ([3]; listed as AmBHEA): 0.225 µM (≈ 0.218 µg/mL)
- MIC C. glabrata [4]: 0.145 µM (≈ 0.14 µg/mL)
- MIC C. glabrata ([4]; listed as AmBHEA): 0.145 µM (≈ 0.14 µg/mL)
- % Remaining at 120 min ([13]; Human Plasma): 119%
- Half Life ([13]; Human Plasma): >4.82 h
- % Remaining at 120 min ([13]; Rat Plasma): 108%
- Half Life ([13]; Rat Plasma): >4.82 h
- MIC C. tropicalis [5]: 0.225 µM (≈ 0.218 µg/mL)
- MIC C. tropicalis ([5]; listed as AmBHEA): 0.225 µM (≈ 0.218 µg/mL)
- MIC A. fumigatus 1100 [6]: 0.7 µM (≈ 0.677 µg/mL)
- MIC A. fumigatus 1100 ([6]; listed as AmBHEA): 0.7 µM (≈ 0.677 µg/mL)
- MIC C. krusei [7]: 0.45 µM (≈ 0.435 µg/mL)
- MIC C. krusei ([7]; listed as AmBHEA): 0.45 µM (≈ 0.435 µg/mL)
- MIC A. fumigatus 91 [10]: 1 µM (≈ 0.967 µg/mL)
- MIC A. fumigatus 91 ([10]; listed as AmBHEA): 1 µM (≈ 0.967 µg/mL)
- MIC A. fumigatus 1163 [11]: 0.525 µM (≈ 0.508 µg/mL)
- MIC A. fumigatus 1163 ([11]; listed as AmBHEA): 0.525 µM (≈ 0.508 µg/mL)

SMILES: CNC(=O)C1C(O)CC2(O)CC(O)CC(O)C(O)CCC(O)CC(O)CC(=O)OC(C)C(C)C(O)C(C)C=CC=CC=CC=CC=CC=CC=CC(OC3OC(C)C(O)C(N)C3O)CC1O2 (stereo not shown) [BB]
- MIC [1]: 1.734 µM
- Average MIC for AmB analogue [1]: 0.336 μM
- MIC C. albicans SN250 [2]: 0.5 µM (≈ 0.469 µg/mL)
- MIC C. albicans [3]: 0.5 µM (≈ 0.469 µg/mL)
- MIC C. glabrata [4]: 0.375 µM (≈ 0.351 µg/mL)
- MIC C. tropicalis [5]: 0.5 µM (≈ 0.469 µg/mL)
- MIC A. fumigatus 1100 [6]: 2 µM (≈ 1.87 µg/mL)
- MIC C. krusei [7]: 2 µM (≈ 1.87 µg/mL)
- MHC [8]: >500 µM
- Cholesterol Binding [9]: No
- MIC A. fumigatus 91 [10]: 4 µM (≈ 3.75 µg/mL)
- MIC A. fumigatus 1163 [11]: 4 µM (≈ 3.75 µg/mL)

SMILES: CC1C=CC=CC=CC=CC=CC=CC=CC(OC2OC(C)C(O)C(N)C2O)CC2OC(O)(CC(O)CC(O)C(O)CCC(O)CC(O)CC(=O)OC(C)C(C)C1O)CC(O)C2C(=O)NCC(C)(C)O (stereo not shown) [AI]
- MIC [1]: 0.675 µM
- MIC C. albicans SN250 [2]: 0.3 µM (≈ 0.299 µg/mL)
- MIC C. albicans [3]: 0.4 µM (≈ 0.398 µg/mL)
- MIC C. glabrata [4]: 0.25 µM (≈ 0.249 µg/mL)
- MIC C. tropicalis [5]: 0.45 µM (≈ 0.448 µg/mL)
- MIC A. fumigatus 1100 [6]: 1 µM (≈ 0.995 µg/mL)
- MIC C. krusei [7]: 1 µM (≈ 0.995 µg/mL)
- MIC A. fumigatus 91 [10]: 1 µM (≈ 0.995 µg/mL)
- MIC A. fumigatus 1163 [11]: 1 µM (≈ 0.995 µg/mL)

SMILES: CC(C)CC(CO)NC(=O)C1C(O)CC2(O)CC(O)CC(O)C(O)CCC(O)CC(O)CC(=O)OC(C)C(C)C(O)C(C)C=CC=CC=CC=CC=CC=CC=CC(OC3OC(C)C(O)C(N)C3O)CC1O2 (stereo not shown) [AE]
- MIC [1]: 0.956 µM
- MIC C. albicans SN250 [2]: 1 µM (≈ 1.02 µg/mL)
- MIC C. albicans [3]: 0.75 µM (≈ 0.767 µg/mL)
- MIC C. glabrata [4]: 0.4 µM (≈ 0.409 µg/mL)
- MIC C. tropicalis [5]: 0.5 µM (≈ 0.512 µg/mL)
- MIC A. fumigatus 1100 [6]: 1 µM (≈ 1.02 µg/mL)
- MIC C. krusei [7]: 1 µM (≈ 1.02 µg/mL)
- MIC A. fumigatus 91 [10]: 2 µM (≈ 2.05 µg/mL)
- MIC A. fumigatus 1163 [11]: 1 µM (≈ 1.02 µg/mL)

SMILES: CC(CO)NC(=O)C1C(O)CC2(O)CC(O)CC(O)C(O)CCC(O)CC(O)CC(=O)OC(C)C(C)C(O)C(C)C=CC=CC=CC=CC=CC=CC=CC(OC3OC(C)C(O)C(N)C3O)CC1O2 (stereo not shown) [AC]
- MIC [1]: 0.713 µM
- MIC C. albicans SN250 [2]: 0.3 µM (≈ 0.294 µg/mL)
- MIC C. albicans [3]: 0.3 µM (≈ 0.294 µg/mL)
- MIC C. glabrata [4]: 0.3 µM (≈ 0.294 µg/mL)
- MIC C. tropicalis [5]: 0.35 µM (≈ 0.343 µg/mL)
- MIC A. fumigatus 1100 [6]: 1 µM (≈ 0.981 µg/mL)
- MIC C. krusei [7]: 0.45 µM (≈ 0.442 µg/mL)
- MIC A. fumigatus 91 [10]: 2 µM (≈ 1.96 µg/mL)
- MIC A. fumigatus 1163 [11]: 1 µM (≈ 0.981 µg/mL)
